Assay [1] deals with Isolated Rat Aorta. Description: Effect on Isolated Rat Aorta (relaxation of norepinephrine-contracted aortic strips). Conditions: aortic spiral strips, norepinephrine 3.2 ×10^-8 M tonus, 37° C., effect of papaverine 10^-4 M=100%, read-out: ED50 value. How it is done: The aortas were removed from rats. Spiral strips approximately 10 mm in length were cut from the aorta, and suspended in an organ bath containing Tyrode's solution at 37° C., aerated with a gas mixture of 95% oxygen and 5% carbon dioxide. The tonus of the strips was recorded on a polygraph with a force-displacement transducer. After the initial resting tension was adjusted to 0.5 g, norepinephrine 3.2 ×10^-8 M was added to the organ bath to increase the tonus of the aortic strips to 0.9-1.1 g.
The cumulative concentrations of the test compound were then added, and finally papaverine 10^-4 M was given to determine maximum relaxation. ED50 values were calculated by interpolation from the mean cumulative dose-activity curves (effect of papaverine 10^-4 M=100%).
N-(2-Nitrooxyethyl)-2-methyl-4-thiazolecarboxamide hydrochloride (hereinafter referred to as Compound .circle.1 ), and N-(2-Nitrooxyethyl)-3-pyridinecarboxamide (Reference Compound A) (hereinafter referred to as Compound A).

For assay [2], the system named is Normotensive Rats. Description: Effect on Normotensive Rats (duration of hypotensive effect after oral dosing). The format is in vivo. Conditions: 10 mg/kg, normotensive male S.D. rats fasted about 18 hours. On the procedure:
7 to 9-week-old male S.D. rats with mean arterial blood pressure of 100-125 mmHg, weighing 245-375 g, were used. The animals were cannulated in the left femoral artery and the mean blood pressure and heart rate were measured with a pressure-transducer. The drugs were given orally. The animals were deprived of food for about 18 hours before oral dosing. The test drugs were dissolved in saline or ethanol, and given in oral doses of 10 mg/kg. The duration of half the maximum hypotensive effect was calculated as T 1/2. Compound 1 ,and Compound A.

In brackets after ≈: the same amount, converted by molar mass.

Two compounds from US5010093A, “Nitric ester derivative” (Fujisawa Pharmaceutical Co., Ltd., priority 1987, dated 1991) can be followed below.

With `Cc1nc(C(=O)NCCO[N+](=O)[O-])cs1` [.circle.1], in assay [1], the EC50 came to 0.091 µg/mL (≈ 0.394 µM). Also, the “T 1/2 (duration of half the maximum hypotensive effect)” value in assay [2] worked out at 1.67 h.

Consider `O=C(NCCO[N+](=O)[O-])c1cccnc1` [Compound A, N-(2-Nitrooxyethyl)-3-pyridinecarboxamide], for which, in assay [1], the EC50 was found to be 0.94 µg/mL (≈ 4.45 µM). Further, the “T 1/2 (duration of half the maximum hypotensive effect)” value in assay [2] turned out to be 0.833 h.
